From patent US8795632B2, “Disease animal model for chronic pain” (Astellas Pharma Inc., priority 2008, dated 2014)

Tests used:
[1] = test system: reserpine repeated administration-induced skin pain sensation threshold value reduction; test: Effects of drugs on reserpine repeated administration-induced reduction of skin pain sensation threshold value; assay type: in vivo, rat; conditions: male rats, pregabalin, diclofenac oral, pramipexole subcutaneous; for effect on reserpine repeated administration-induced skin pain sensation threshold value reduction: 5 days after final reserpine (1 mg/kg s.c. x 3 days), 30-240 min after drug, duloxetine; for dose at which the effect was statistically significant by the index of skin pain sensation threshold value: 5 days after final reserpine, two-way analysis of variance and Bonferroni
[2] = test system: reserpine repeated administration-induced muscle pressure pain threshold value reduction; test: Effects of drugs on reserpine repeated administration-induced reduction of muscle pressure pain threshold value; assay type: in vivo, rat; conditions: for effect on reserpine repeated administration-induced muscle pressure pain threshold value reduction / dose at which the effect was statistically significant by the index of muscle pressure pain threshold value: male rats, pregabalin, duloxetine, diclofenac oral, pramipexole subcutaneous; for effect on reserpine repeated administration-induced muscle pressure pain threshold value reduction: 5 days after final reserpine (1 mg/kg s.c. x 3 days), 30-240 min after drug; for dose at which the effect was statistically significant by the index of muscle pressure pain threshold value: 5 days after final reserpine, two-way analysis of variance and Bonferroni; for efficacy on this disease animal model (reserpine-treated mammal): summary statement, chronic muscle pain and tactile allodynia model
Protocol: Male Sprague-Dawley rats (Japan SLC, Hamamatsu, Japan) were used as the animal. A total of 30 rats were used for each drug. As shown in Example 1, 1 mg/kg of reserpine was repeatedly administered subcutaneously on the back of 24 rats once a day for 3 days to induce reduction of the muscle pressure pain threshold value and skin pain sensation threshold value. The other 6 rats were subjected to the test as a healthy control group without carrying out the reserpine treatment.
All of the evaluations of drug effects were carried out 5 days after the final administration of reserpine.
On the day of drug effect evaluation (5 days after the final administration of reserpine), the muscle pressure pain threshold value and skin pain sensation threshold value were firstly measured on all of the rats (24 reserpine-treated rats and 6 healthy rats). The 24 reserpine-treated rats were divided into 4 groups based on the doses of the test drug, and the muscle pressure pain threshold value and skin pain sensation threshold value were measured after 30, 60, 120 or 240 minutes of the drug or solvent administration. On the 6 healthy rats, the drug administration was not carried out, but only the measurement of muscle pressure pain threshold value and skin pain sensation threshold value was carried out.
All of the measured values were expressed as average value±standard error. Statistical significance test of the measured values between the test drug administration groups and the solvent administration group at each point of time was carried out by a two-way analysis of variance and the Bonferroni method. Probability value (P) of less than 5% was judged as statistically significant (P<0.05 was expressed as * in the graphs).

fibromyalgia patients = conditions: cited from earlier work; for pain symptom score of fibromyalgia patients in comparison with the placebo group: Non-patent References 7 to 9; for effect in the treatment of fibromyalgia patients (clinical trial): literature clinical trials

Structure (SMILES) | effect on reserpine repeated administration-induced skin pain sensation threshold value reduction [1] | dose at which the effect was statistically significant by the index of skin pain sensation threshold value [1] [mg/kg] | effect on reserpine repeated administration-induced muscle pressure pain threshold value reduction [2] | dose at which the effect was statistically significant by the index of muscle pressure pain threshold value [2] [mg/kg] | efficacy on this disease animal model (reserpine-treated mammal) [2] | pain symptom score of fibromyalgia patients in comparison with the placebo group (fibromyalgia patients) | effect in the treatment of fibromyalgia patients (clinical trial) (fibromyalgia patients)
O=C(O)Cc1ccccc1Nc1c(Cl)cccc1Cl [diclofenac] | did not recover | > 10 | did not recover | > 10 | not effective |  | 
CNCC[C@H](Oc1cccc2ccccc12)c1cccs1 [duloxetine] | showed a tendency to recover the reserpine repeated administration-induced skin pain sensation pain threshold value reduction but was not statistically significant |  | statistically significantly recovered | 30 | effective | alleviates the pain symptom score of fibromyalgia patients statistically significantly | usefulness has been proved
CC(C)Cc1ccc(C(C)C(=O)O)cc1 (stereo not shown) [ibuprofen] |  |  |  |  |  |  | do not have a significant effect
COc1ccc2cc([C@H](C)C(=O)O)ccc2c1 [naproxen] |  |  |  |  |  |  | do not have a significant effect
CC(C)C[C@H](CN)CC(=O)O [pregabalin] | dose-dependently recovered | 30 | dose-dependently recovered |  | effective | alleviates the pain symptom score of fibromyalgia patients statistically significantly | usefulness has been proved
